Test [1] concerns the target T1, D(3) dopamine receptor (Homo sapiens, UniProt P35462). The experiment in a line: Displacement of [3H]-N-methylspiperone from human dopamine D3 receptor expressed in HEK293 cells after 1 hr by MicroBeta microplate counting method. The test is classed as cell-based.
Test [2] addresses T1, D(3) dopamine receptor. The experiment in a line: Partial agonist activity at dopamine D3 receptor (unknown origin) expressed in HEK293 cells at 10 pM to 100 uM after 2 mins by BRET-based Go activation assay relative to dopamine. The test is classed as cell-based. The following applies: for Emax: 10 pM. In general terms: In BRET a luciferase serves as donor, and the signal depends on an acceptor being close.

Another test is filed under the species Homo sapiens. The experiment in a line: Selectivity ratio of Ki for human dopamine D2 receptor to Ki for human dopamine D3 receptor.
The target of test [3] is T1, D(3) dopamine receptor. Description: Partial agonist activity at dopamine D3 receptor (unknown origin) expressed in HEK293 cells at 10 pM to 100 uM after 30 mins by beta-arrestin recruitment assay relative to dopamine. It is filed as cell-based.
A further test deals with D(2) dopamine receptor (Homo sapiens, UniProt P14416). The experiment in a line: Displacement of [3H]-N-methylspiperone from human dopamine D2 receptor expressed in HEK293 cells after 1 hr by MicroBeta microplate counting method. The test is classed as cell-based. Background: In a radioligand displacement assay an active substance lowers the binding of a labelled ligand.
D(2) dopamine receptor, sequence (P14416 whole entry): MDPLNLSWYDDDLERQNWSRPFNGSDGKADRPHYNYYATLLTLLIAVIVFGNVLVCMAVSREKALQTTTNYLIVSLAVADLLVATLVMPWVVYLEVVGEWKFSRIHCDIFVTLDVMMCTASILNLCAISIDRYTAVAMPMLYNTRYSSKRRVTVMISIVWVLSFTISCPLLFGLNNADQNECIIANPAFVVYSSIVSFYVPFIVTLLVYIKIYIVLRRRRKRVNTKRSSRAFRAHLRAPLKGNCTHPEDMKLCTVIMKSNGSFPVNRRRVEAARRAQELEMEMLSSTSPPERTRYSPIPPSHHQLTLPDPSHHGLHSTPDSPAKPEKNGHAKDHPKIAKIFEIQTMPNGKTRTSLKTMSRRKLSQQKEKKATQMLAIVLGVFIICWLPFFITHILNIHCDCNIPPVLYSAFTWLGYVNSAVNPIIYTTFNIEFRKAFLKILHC

Structures are written as SMILES. Activity calls are given as the source filed them. The calls are words filed in the database; no cut-off is given here.

T1 sequence (P35462 whole entry): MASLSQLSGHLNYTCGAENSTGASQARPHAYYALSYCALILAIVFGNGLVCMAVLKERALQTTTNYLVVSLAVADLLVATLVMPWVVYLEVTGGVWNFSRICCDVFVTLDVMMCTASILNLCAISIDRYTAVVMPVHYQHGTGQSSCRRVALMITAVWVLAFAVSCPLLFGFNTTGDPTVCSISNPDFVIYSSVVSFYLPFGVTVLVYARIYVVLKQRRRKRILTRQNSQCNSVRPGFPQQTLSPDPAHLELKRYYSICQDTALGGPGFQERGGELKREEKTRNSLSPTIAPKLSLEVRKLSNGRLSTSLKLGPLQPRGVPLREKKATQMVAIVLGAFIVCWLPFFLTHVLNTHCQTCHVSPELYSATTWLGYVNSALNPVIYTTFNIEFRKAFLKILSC

The term Ki denotes a measure of affinity in units of concentration, obtained from inhibition or displacement. Low values mean higher affinity, high ones lower affinity. What is called Emax is the greatest response seen or fitted, relative to the assay's reference. On to `CC[C@H](O)CN1CCN(c2cccc(Cl)c2Cl)CC1`, for which the Ki turned out to be 0.0343 µM on D(3) dopamine receptor [1] and 0.0931 µM at D(2) dopamine receptor. On D(3) dopamine receptor [2], this compound returned a maximal effect (Emax) of 58.6%. Also, the Ratio Ki in the test filed under Homo sapiens was found to be 3. In addition, at D(3) dopamine receptor [3], the result was Active.
`O=C(NCC[C@H](O)CN1CCN(c2cccc(Cl)c2Cl)CC1)c1cc2ccccc2[nH]1` returned an Emax on D(3) dopamine receptor [2] of 55.7%. On D(3) dopamine receptor [3], the result was Active.
Turning to `O=C(NCCCCN1CCN(c2cccc(Cl)c2Cl)CC1)c1cnc2ccccc2c1`, the inhibitory constant (Ki) worked out at 0.000172 µM on D(3) dopamine receptor [1] and 0.01 µM at D(2) dopamine receptor. This compound also showed an Emax at D(3) dopamine receptor [2] of 20.9%. Moreover, the Ratio Ki in the test filed under Homo sapiens was determined as 58.
In the case of `C[C@H](O)CN1CCN(c2cccc(Cl)c2Cl)CC1`, the Ki on D(3) dopamine receptor [1] is 0.0752 µM; on D(2) dopamine receptor, 0.317 µM. In the test listed under Homo sapiens, the Ratio Ki came to 4.
For `CC[C@@H](O)CN1CCN(c2cccc(Cl)c2Cl)CC1`, the inhibitory constant (Ki) worked out at 0.119 µM on D(3) dopamine receptor [1] and 0.588 µM on D(2) dopamine receptor. At D(3) dopamine receptor [2], this compound gave an Emax of 11.6%. Also, in the test listed under Homo sapiens, the Ratio Ki turned out to be 5. Besides, the result at D(3) dopamine receptor [3] was inactive.
For `O=C(NCC[C@@H](O)CN1CCN(c2cccc(Cl)c2Cl)CC1)c1cnc2ccccc2c1`, in that order: 0.00412 µM, 0.202 µM, 19.9%, 49 and “inactive”.
At D(3) dopamine receptor [2], `O=C(NCC[C@@H](O)CN1CCN(c2cccc(Cl)c2Cl)CC1)c1cc2ccccc2[nH]1` returned an Emax of 14.9%. In addition, the outcome at D(3) dopamine receptor [3] was inactive.
Take `CCCCN1CCN(c2cccc(Cl)c2Cl)CC1`: at D(3) dopamine receptor [2] (10 pM to 100 uM), the result was inactive. In addition, the Ratio Ki in the test listed under Homo sapiens worked out at 2.
Take `O=C(NCCC(O)CN1CCN(c2cccc(Cl)c2Cl)CC1)c1cnc2ccccc2c1` (racemic): the Ki was 0.00426 µM at D(3) dopamine receptor [1] and 0.268 µM on D(2) dopamine receptor. For the same compound, in the test filed under Homo sapiens, the Ratio Ki was 63.
Take `O=C(NCC[C@H](O)CN1CCN(c2cccc(Cl)c2Cl)CC1)c1cnc2ccccc2c1`: the results for the Ki at D(3) dopamine receptor [1] and at D(2) dopamine receptor were 0.0234 µM and 0.316 µM, respectively. On D(3) dopamine receptor [2], this compound displayed an Emax of 53.9%. Further, the Ratio Ki in the test listed under Homo sapiens was 14. Besides, at D(3) dopamine receptor [3], the result was Active.
In the case of `C[C@@H](O)CN1CCN(c2cccc(Cl)c2Cl)CC1`, the Ki amounted to 0.373 µM at D(3) dopamine receptor [1] and 1.4 µM at D(2) dopamine receptor. The Ratio Ki in the test filed under Homo sapiens was determined as 4.

Source of the values: ChEMBL document CHEMBL4052584, “Toward Understanding the Structural Basis of Partial Agonism at the Dopamine D3 Receptor” (J Med Chem, 2017).
